{"source": "patent US5510356A", "about": "“Bisquinolines and processes for their production and use to treat malaria” (priority 1991, dated 1996)", "key": {"[1]": {"tested_on": "P. berghei (strain KBG 173)", "assay": "In vivo activity against P. berghei in mice, single subcutaneous dose 3 days after infection", "set-up": "species or system Plasmodium berghei; mice", "conditions": "for P. berghei T-C: single dose 3 days post infection, n = 5", "protocol": "In vivo activity against P. berghei was obtained against a drug-sensitive strain of P. berghei (strain KBG 173) (Osdene et al., 1967). Each test compound is administered subcutaneous to five male mice per dilution in a single subcutaneous dose 3 days after infection. Results are expressed in T-C values which indicate the mean survival time of the treated mice beyond that of the control animals; untreated mice survive on average 6.2 days. Compounds are classified as active (A) when the mean survival time of the treated mice is twice that of the controls (>6.2 days), and curative (C) when one or more test animals live 60 days post-infection. Deaths from 0-2 days post-treatment are attributed to toxicity (T)."}, "P. falciparum": {"tested_on": "P. falciparum", "assay": "In vitro activity against P. falciparum (both clones, D-6 and W-2)", "format": "cell-based, Plasmodium falciparum", "protocol": "(§1) In vitro activity against P. falciparum was determined using a modification of the semiautomated microdilution technique of Desjardins et al. (1979) and Milhous et al. (1985). Two P. falciparum malaria parasite clones, designated as Sierra Leone (D-6) and Indochina (W-2), are used in susceptibility testing. The former is resistant to mefloquine, and the latter to CQ, pyrimethamine, sulfadoxine, and quinine. Test compounds are dissolved in dimethylsulfoxide, and solutions serially diluted with culture media. Erythrocytes with 0.25 to 0.5% parasitemia are added to each well of a 96-well microdilution plate to give a final hematocrit of 1.5%. […] Results are reported as […] (ng/mL) values. For a complete description of this assay, see Milhous et al. (1985) and Lin et al. (1987)."}, "[2]": {"tested_on": "P. falciparum clone D-6 (Sierra Leone)", "format": "cell-based, Plasmodium falciparum", "conditions": "D-6 clone (resistant to mefloquine)", "protocol": "as §1"}, "[3]": {"tested_on": "P. falciparum clone W-2 (Indochina)", "format": "cell-based, Plasmodium falciparum", "protocol": "as §1"}, "[4]": {"assay": "Solubility in DMSO (noted in NMR work)", "conditions": "13C NMR spectra not obtainable"}}}
{"smiles": "Clc1ccc2c(NCCNc3ccnc4cc(Cl)ccc34)ccnc2c1", "note": "[Compound 1, N^1 N^2, -Bis(7-chloroquinolin-4-y1)ethane-1,2-diamine]", "values": [{"measurement": "in vivo activity against P. berghei (in words)", "setting": "[1]", "result": "without activity in vivo"}, {"measurement": "P. berghei T-C", "setting": "[1]; 40 mg/kg s.c.", "result": 0.0, "unit": "days"}, {"measurement": "P. berghei T-C", "setting": "[1]; 160 mg/kg s.c.", "result": 0.4, "unit": "days"}, {"measurement": "P. berghei T-C", "setting": "[1]; 640 mg/kg s.c.", "result": 1.4, "unit": "days"}, {"measurement": "in vitro activity against P. falciparum (in words)", "setting": "P. falciparum", "result": "approximately an order of magnitude less potent in vitro"}, {"measurement": "Resistance Index", "setting": "P. falciparum; IC50 (W2)/IC50 (D6) ratio", "result": 1.6}, {"measurement": "antimalarial activity (in words)", "setting": "P. falciparum; general statement, refers to Table I", "result": "antimalarial activity"}, {"measurement": "P. falciparum IC50 (nM) D-6", "setting": "[2]", "result": 17.3, "unit": "nM"}, {"measurement": "P. falciparum IC50 (nM) W-2", "setting": "[3]", "result": 27.0, "unit": "nM"}, {"measurement": "solubility in DMSO", "setting": "[4]", "result": "low solubilities in DMSO"}]}
